Test results published in patent EP0727938B1, “DEVICE AND METHOD FOR PHOTOACTIVATION” (Cerus Corporation, priority 1993, dated 1995).

Columns and labels:
human platelets = assay: Platelet activation: GMP140 expression measured with CD62 antibody by flow cytometry; type: cell-based; details: for Activation, PMA Activated, Day 3: storage Day 3, PMA 10-^7 M; for Activation, PMA Activated, Day 5: storage Day 5, PMA 10-^7 M
Description: When platelets become activated, an alpha granule membrane glycoprotein called GMP140 becomes exposed on the platelet surface. Less than (5%) of fresh, normal unstimulated platelets express detectable GMP 140 levels by flow cytometry. See generally M.J. Metzelaar, Studies on the Expression of Activation-Markers on Human Platelets (Thesis 1991).
To measure GMP140, a small aliquot of platelet rich plasma is placed in HEPES buffer containing a GMP140-binding antibody or control mouse IgG. CD62 is a commercially available monoclonal antibody which binds to GMP 140 (available from Sanbio, Uden, the Netherlands; Caltag Labs, So. San Francisco, CA, and Becton Dickinson, Mountain View, CA). After a fifteen minute incubation, Goat Anti-Mouse IgG conjugated to FITC is added to the tube in saturating amounts. Finally, the cells are diluted in isotonic saline, fixed with paraformaldehyde and analyzed on a FACSCAN™ (Becton Dickinson, Mountain View, CA). The positive control is made by adding Phorbol Myristate Acetate (PMA) to the test system at a final concentration of 10-^7 M.
In this example, CD62 was employed to measure the impact, if any, of irradiation alone on platelet activation. The antibody was stored in small aliquots (0.01 mg/ml) at -40°C prior to use. A mouse IgG control (0.05 mg/ml) (Becton Dickinson, Mountain View, CA #9040) 5X concentrated was employed. At time of use, this was diluted 1:5 in HEPES buffer. The secondary antibody was goat Anti-Mouse IgG conjugated to FITC (TAGO, Burlingame, CA #3506). This was stored in small aliquots at -20°C. Phorbol Myristate Acetate (PMA) (Sigma, St. Louis, MO) was stored at -40°C. At time of use, this was dissolved in DMSO (working concentration was 1.62 X 10^-5 M).
16% Paraformaldehyde (PFA) (Sigma, St. Louis, MO) was prepared by adding 16 grams paraformaldehyde to 100 ml de-ionized water. This was heated to 70°C, whereupon 3 M NaOH was added dropwise until the solution was clear. The solution was cooled and the pH was adjusted to 7.4 with 1 N HCl. This was filtered and stored. A commercially available isotonic buffer was used: Hematall Isotonic Diluent (Fisher # CS 606-20).
Following irradiation, the platelets were stored for 5 days. At specific time points, aliquots were taken and processed.
Processing involved adding an aliquot (e.g. 5 microliters) of platelet concentrate to each microcentrifuge tube containing the antibody and appropriate reagents and this was mixed very gently by vortex. The samples were incubated for 15 minutes at room temperature.
The Goat anti-Mouse IgG-FITC (diluted 1:10 in HEPES buffer) was added (5 microliters) to each tube and the solution was mixed by gentle vortex. The samples were incubated for an additional 15 minutes at room temperature.
Isoton II was added (1 ml) to each tube and mixed gently with a polypropylene disposable pipette. 8% PFA in HEPES (150 microliters) was added to each diluted sample to final 1%. The platelets were analyzed on the FACSCAN™.
Shorter Irradiation Times.

viruses = details: 300 ug/ml of 8-MOP, one hour or more of irradiation with ultraviolet light; cited from earlier work
[1] = non activated 8-MOP; cited from earlier work
[2] = Photochemical breakdown measured by reverse phase HPLC; type: physicochemical; details: Figure 7
[3] = system: single stranded 5S ribosomal RNA; details: irradiation at 4°C compared to 20°C; cited from earlier work

## COc1c2occc2cc2ccc(=O)oc12 [8-MOP, 8-methoxypsoralen]
Human platelets; 10 ug/ml 8-MOP, five minutes UVA, 25°C, stored for 5 days
  damage to platelets after irradiation in the presence of psoralen: without damage to the cells
viruses
  inactivation of viruses: can effectively inactivate viruses
[1]
  mutagenicity: not mutagenic

## Cc1oc2c(C)c3oc(=O)cc(C)c3cc2c1CN [AMT, 4'-aminomethyl-4,5',8-trimethylpsoralen]
[2]
  degradation (photochemical breakdown): degrades more quickly than 8-MOP

## Cc1oc2c(C)c3oc(=O)cc(C)c3cc2c1CO [HMT, 4'-hydroxymethyl-4,5',8-trimethylpsoralen]
[3]
  enhancement of covalent addition of HMT to 5S rRNA: two fold

## CCCCCCCCCCCCCC(=O)O[C@@H]1[C@@H](C)[C@@]2(O)[C@@H](C=C(CO)C[C@]3(O)C(=O)C(C)=C[C@@H]23)[C@@H]2C(C)(C)[C@]12OC(C)=O [PMA, Phorbol Myristate Acetate]
Human platelets; Control (no irradiation)
  Activation, PMA Activated, Day 3: 85%
  Activation, PMA Activated, Day 5: 89%
Human platelets; UV 5'
  Activation, PMA Activated, Day 3: 87%
  Activation, PMA Activated, Day 5: 86%
Human platelets; UV 10'
  Activation, PMA Activated, Day 3: 84%
  Activation, PMA Activated, Day 5: 79%
